Our source for the Activity values is ChEMBL document CHEMBL5715954, “Silencing c-Myc translation as a therapeutic strategy through targeting PI3Kδ and CK1ε in hematological malignancies” (Blood, 2017).

What all share (parameters): scale not given: the % may be the effect or the level left
The target in assay [1] is T1, Dual specificity tyrosine-phosphorylation-regulated kinase 2 (Homo sapiens) (UniProt Q92630).
T1 sequence (whole entry): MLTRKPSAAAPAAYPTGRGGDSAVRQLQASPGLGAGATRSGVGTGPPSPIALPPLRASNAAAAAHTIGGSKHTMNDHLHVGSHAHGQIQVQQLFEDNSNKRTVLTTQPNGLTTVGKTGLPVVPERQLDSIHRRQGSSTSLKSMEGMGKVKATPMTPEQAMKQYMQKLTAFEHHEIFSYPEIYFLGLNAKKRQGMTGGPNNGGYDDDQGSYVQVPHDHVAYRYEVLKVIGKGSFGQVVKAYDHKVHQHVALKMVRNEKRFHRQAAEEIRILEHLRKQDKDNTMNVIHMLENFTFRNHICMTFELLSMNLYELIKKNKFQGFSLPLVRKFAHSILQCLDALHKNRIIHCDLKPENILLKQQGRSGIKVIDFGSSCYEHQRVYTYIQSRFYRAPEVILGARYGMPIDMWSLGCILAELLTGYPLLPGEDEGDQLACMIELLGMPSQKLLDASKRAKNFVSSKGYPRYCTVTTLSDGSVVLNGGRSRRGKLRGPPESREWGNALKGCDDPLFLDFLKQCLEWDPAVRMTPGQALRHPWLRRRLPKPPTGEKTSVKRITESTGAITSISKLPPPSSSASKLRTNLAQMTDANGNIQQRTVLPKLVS
Put plainly: Inhibition of human DYRK2 assessed as enzyme activity at 1 uM using RRRFRPASPLRGPPK as substrate preincubated for 20 mins followed by [gamma-33P]-ATP addition and measured after 120 mins by radiometric Hot-SpotSM Kinase assay relative to control.

Assay [2] addresses Testis-specific serine/threonine-protein kinase 6 (Homo sapiens) (UniProt Q9BXA6). Briefly: Inhibition of human SSTK assessed as enzyme activity at 1 uM using myelin basic protein as substrate preincubated for 20 mins followed by [gamma-33P]-ATP addition and measured after 120 mins by radiometric Hot-SpotSM Kinase assay relative to control.
In assay [3] the target is Casein kinase II subunit alpha' (Homo sapiens) (UniProt P19784). Briefly: Inhibition of human CK2a2 assessed as enzyme activity at 1 uM using RRRDDDSDDD as substrate preincubated for 20 mins followed by [gamma-33P]-ATP addition and measured after 120 mins by radiometric Hot-SpotSM Kinase assay relative to control.
The target of assay [4] is T2, MAP kinase-activated protein kinase 5 (Homo sapiens) (UniProt Q8IW41).
T2 sequence (whole entry): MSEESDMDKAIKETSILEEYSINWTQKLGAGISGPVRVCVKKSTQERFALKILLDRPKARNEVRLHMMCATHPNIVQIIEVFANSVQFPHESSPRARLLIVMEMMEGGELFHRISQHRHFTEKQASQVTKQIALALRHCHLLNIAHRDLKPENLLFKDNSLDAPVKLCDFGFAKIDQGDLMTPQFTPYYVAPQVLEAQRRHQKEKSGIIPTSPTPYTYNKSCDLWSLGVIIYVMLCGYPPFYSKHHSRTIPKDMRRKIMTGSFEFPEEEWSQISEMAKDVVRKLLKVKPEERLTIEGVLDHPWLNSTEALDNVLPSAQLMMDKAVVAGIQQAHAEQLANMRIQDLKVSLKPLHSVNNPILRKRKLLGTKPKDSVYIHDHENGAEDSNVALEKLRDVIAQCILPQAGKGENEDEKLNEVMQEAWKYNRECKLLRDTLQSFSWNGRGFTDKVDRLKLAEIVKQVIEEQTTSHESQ
Put plainly: Inhibition of human MAPKAPK5 assessed as enzyme activity at 1 uM using KKLNRTLSVA as substrate preincubated for 20 mins followed by [gamma-33P]-ATP addition and measured after 120 mins by radiometric Hot-SpotSM Kinase assay relative to control.

Assay [5] deals with T3, Serine/threonine-protein kinase Sgk2 (Homo sapiens) (UniProt Q9HBY8).
T3 sequence (whole entry): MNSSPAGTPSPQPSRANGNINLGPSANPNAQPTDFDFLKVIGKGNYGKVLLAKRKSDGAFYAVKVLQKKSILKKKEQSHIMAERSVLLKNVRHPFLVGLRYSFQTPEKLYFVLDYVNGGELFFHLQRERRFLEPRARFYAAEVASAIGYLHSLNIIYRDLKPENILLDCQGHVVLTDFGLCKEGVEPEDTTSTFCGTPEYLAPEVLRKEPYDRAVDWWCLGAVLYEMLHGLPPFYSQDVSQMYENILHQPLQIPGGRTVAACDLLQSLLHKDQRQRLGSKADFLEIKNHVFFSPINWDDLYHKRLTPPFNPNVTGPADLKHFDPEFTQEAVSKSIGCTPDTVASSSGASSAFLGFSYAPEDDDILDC
Briefly: Inhibition of human SGK2 assessed as enzyme activity at 1 uM using KGSGSGRPRTSSFAEG as substrate preincubated for 20 mins followed by [gamma-33P]-ATP addition and measured after 120 mins by radiometric Hot-SpotSM Kinase assay relative to control.

For assay [6], the target named is Mitogen-activated protein kinase kinase kinase 10 (Homo sapiens) (UniProt Q02779). Briefly: Inhibition of human MLK2 assessed as enzyme activity at 1 uM using myelin basic protein as substrate preincubated for 20 mins followed by [gamma-33P]-ATP addition and measured after 120 mins by radiometric Hot-SpotSM Kinase assay relative to control.
Assay [7] addresses T4, Lymphokine-activated killer T-cell-originated protein kinase (Homo sapiens) (UniProt Q96KB5).
T4 sequence (whole entry): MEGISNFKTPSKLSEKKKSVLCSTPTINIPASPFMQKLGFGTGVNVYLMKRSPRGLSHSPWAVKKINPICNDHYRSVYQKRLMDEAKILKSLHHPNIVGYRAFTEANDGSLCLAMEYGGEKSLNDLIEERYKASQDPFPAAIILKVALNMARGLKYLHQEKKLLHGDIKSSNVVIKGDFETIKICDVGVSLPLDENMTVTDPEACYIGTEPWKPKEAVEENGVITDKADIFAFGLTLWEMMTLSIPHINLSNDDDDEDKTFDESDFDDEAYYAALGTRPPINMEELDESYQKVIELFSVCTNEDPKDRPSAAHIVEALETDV
Put plainly: Inhibition of human PBK assessed as enzyme activity at 1 uM using myelin basic protein as substrate preincubated for 20 mins followed by [gamma-33P]-ATP addition and measured after 120 mins by radiometric Hot-SpotSM Kinase assay relative to control.

Assay [8] deals with Focal adhesion kinase 1 (Homo sapiens) (UniProt Q05397). Put plainly: Inhibition of human FAK assessed as enzyme activity at 1 uM using poly[Glu:Tyr] (4:1) as substrate preincubated for 20 mins followed by [gamma-33P]-ATP addition and measured after 120 mins by radiometric Hot-SpotSM Kinase assay relative to control.
Sequence of Focal adhesion kinase 1 (Homo sapiens) (Q05397 2-1052 limits assumed): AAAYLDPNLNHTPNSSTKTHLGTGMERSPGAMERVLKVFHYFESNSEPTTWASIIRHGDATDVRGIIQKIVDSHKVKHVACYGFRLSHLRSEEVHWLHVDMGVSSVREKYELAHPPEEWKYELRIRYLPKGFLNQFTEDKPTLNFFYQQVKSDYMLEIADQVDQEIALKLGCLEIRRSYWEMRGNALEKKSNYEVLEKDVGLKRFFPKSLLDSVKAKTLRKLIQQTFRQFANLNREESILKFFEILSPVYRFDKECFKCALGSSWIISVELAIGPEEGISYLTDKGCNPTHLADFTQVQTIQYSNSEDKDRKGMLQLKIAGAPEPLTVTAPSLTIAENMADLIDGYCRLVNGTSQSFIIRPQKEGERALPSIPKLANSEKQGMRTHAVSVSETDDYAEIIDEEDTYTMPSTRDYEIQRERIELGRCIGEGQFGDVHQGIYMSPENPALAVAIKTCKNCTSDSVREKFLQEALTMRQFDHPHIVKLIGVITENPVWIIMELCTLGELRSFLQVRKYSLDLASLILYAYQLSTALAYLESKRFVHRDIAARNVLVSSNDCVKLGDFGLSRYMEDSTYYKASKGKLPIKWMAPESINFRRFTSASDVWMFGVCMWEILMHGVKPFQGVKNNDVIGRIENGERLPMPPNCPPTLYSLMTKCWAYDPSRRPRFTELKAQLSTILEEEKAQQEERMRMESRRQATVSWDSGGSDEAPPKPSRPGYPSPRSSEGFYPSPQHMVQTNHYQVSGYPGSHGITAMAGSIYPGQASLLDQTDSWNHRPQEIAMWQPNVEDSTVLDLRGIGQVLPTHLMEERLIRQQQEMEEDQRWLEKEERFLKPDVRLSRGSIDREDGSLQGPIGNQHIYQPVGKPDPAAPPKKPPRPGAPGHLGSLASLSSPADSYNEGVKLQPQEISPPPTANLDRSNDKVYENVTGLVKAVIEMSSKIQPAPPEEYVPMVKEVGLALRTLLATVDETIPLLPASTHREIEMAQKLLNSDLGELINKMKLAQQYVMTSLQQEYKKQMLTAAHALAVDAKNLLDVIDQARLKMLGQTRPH

Sequence of Mitogen-activated protein kinase kinase kinase 10 (Homo sapiens) (Q02779 whole entry, looked up): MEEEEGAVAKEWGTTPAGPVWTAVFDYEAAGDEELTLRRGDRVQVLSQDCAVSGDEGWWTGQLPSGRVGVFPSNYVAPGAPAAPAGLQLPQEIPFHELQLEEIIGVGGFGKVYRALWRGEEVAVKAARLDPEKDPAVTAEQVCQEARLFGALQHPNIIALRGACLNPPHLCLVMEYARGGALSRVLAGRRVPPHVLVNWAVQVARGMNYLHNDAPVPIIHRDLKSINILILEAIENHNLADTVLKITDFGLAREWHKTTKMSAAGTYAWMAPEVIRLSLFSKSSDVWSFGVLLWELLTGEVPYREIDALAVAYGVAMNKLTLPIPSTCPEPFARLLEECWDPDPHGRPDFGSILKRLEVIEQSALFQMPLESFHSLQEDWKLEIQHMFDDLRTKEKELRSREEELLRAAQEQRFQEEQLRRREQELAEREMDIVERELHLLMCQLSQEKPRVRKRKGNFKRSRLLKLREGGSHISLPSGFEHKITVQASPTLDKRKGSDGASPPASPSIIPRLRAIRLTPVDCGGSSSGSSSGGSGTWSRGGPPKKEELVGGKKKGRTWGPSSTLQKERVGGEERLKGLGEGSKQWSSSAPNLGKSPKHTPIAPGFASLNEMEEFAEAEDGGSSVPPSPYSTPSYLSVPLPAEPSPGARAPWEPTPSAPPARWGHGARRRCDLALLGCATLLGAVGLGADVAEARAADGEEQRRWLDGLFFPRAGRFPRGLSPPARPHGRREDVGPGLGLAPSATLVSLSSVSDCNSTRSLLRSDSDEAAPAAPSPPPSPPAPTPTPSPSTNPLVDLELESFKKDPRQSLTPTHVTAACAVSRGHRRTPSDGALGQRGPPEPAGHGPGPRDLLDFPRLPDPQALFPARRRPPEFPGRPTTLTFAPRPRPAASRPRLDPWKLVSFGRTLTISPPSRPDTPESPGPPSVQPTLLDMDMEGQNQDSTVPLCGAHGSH
Sequence of Testis-specific serine/threonine-protein kinase 6 (Homo sapiens) (Q9BXA6 whole entry): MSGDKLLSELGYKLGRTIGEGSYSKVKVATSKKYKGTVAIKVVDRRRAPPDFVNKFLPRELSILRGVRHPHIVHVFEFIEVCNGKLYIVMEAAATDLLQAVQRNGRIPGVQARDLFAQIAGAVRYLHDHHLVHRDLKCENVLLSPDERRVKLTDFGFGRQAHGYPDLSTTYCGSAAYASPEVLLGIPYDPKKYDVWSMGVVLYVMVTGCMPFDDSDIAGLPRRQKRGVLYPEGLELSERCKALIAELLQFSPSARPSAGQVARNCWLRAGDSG
Sequence of Casein kinase II subunit alpha' (Homo sapiens) (P19784 whole entry, looked up): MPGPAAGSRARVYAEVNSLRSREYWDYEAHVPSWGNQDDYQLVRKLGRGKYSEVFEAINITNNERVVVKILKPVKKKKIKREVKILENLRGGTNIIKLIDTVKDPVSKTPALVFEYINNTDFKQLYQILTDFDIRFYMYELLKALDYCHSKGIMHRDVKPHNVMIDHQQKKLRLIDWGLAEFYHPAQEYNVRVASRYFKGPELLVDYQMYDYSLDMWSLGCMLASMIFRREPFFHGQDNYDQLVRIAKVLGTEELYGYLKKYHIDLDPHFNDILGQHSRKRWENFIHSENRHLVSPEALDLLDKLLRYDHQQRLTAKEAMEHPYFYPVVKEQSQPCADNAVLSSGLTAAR

With `C[C@H](Nc1ncnc2nc[nH]c12)c1cc2cccc(Cl)c2c(=O)n1-c1ccccc1`, the Activity worked out at 99% in assay [1]; 103% in assay [2]; 99.5% in assay [3]; 99% in assay [4]; 98.8% in assay [5]; 103% in assay [6]. Also, the results for the Activity in assay [7] and in assay [8] were 102% and 98.4%, respectively.
Turning to `CC[C@H](Nc1ncnc2[nH]cnc12)c1nc2cccc(F)c2c(=O)n1-c1ccccc1`, the Activity in assay [1] worked out at 99%; in assay [2], 105%; in assay [3], 91.8%; in assay [4] it was 99.5%; in assay [5], 91.9%; in assay [6] it was 112%. The Activity in assay [7] is 105%; in assay [8], 103%.
As for `CC(C)Oc1ccc(-c2nn([C@@H](C)c3oc4ccc(F)cc4c(=O)c3-c3cccc(F)c3)c3ncnc(N)c23)cc1F` [UMBRALISIB], the Activity in assay [1] was 99.2%; in assay [2], 102%; in assay [3], 86.4%; in assay [4], 104%; in assay [5], 90.9%; in assay [6], 108%. Besides, the Activity in assay [7] came out at 105%; in assay [8], 100%.
